These results are taken from patent US8604065B2, “Pyridyl cyanoguanidine derivatives” (priority 2010, dated 2013).

Common to all, as to assay type: cell-based
The test system of assay [1] is human B lymphoma BA91. The experiment in a line: growth inhibition on BA91 in vitro (MTT). The following applies: BA91 cells, 72 h. The protocol: (§1) Human pancreatic cancer AsPC-1; human acute lymphocytic leukemia taxol-resistant cell strain CCRF-CEM/T; human adenocarcinoma of lung NCI-H1975; human pharyngeal squamous cell carcinoma Fadu; human B lymphoma BA25; human B lymphoma BA91; human B lymphoma BA127; human stomach cancer NCI-N87; human non-small cell lung cancer A549; human liver cancer SK-Hep-1; human lung cancer NCI-H460; human prostate cancer PC-3.
(§2) The cells were cultured under the following conditions:
(§3) complete medium: 90% RPMI1640, 10% FBS; 37° C., 5% CO2, saturated humidity.
(§4) After cultured to the end of the logarithmic growth phase, the cells were diluted with the complete medium to the required concentration.
(§5) The cells were seeded in a 96-well microplate at a suitable concentration (CCRF-CEM/T: 20000 cells/well; BA25: 20000 cells/well; BA91: 60000 cells/well; BA127: 60000 cells/well).
(§6) A 2 mM stock solution was prepared by dissolving test compounds in DMSO, diluted with a base medium (without serum) to form a 20 μM or 2 μM 10× working solution which was diluted using a gradient of 1/3. During dilution, the concentration of DMSO was kept consistent. There were 8 dose groups in total. 12 μl of 10× compound working solution was added to the experimental well until the final volume of each well was 120 μl and the concentration of DMSO was 1‰. Meanwhile, a solvent control group without compounds (PC) and a solvent control group without cells and compounds (NC) were prepared. The cells were further cultured for 72 h.
(§7) Subsequently, the activity of cells was measured with a microculture tetrozolium (MTT method). Specifically, 30 μl/well of PBS containing 2.5 mg/ml MTT was added, and then the cells were cultured for another 3 h. 100 μl/well of triple lysis buffer (10% SDS, 5% isobutanol, 0.012 M HCl) was added, and the mixture was kept at room temperature to dissolve MTT crystal. OD value at 570 nm was measured with an ELISA analyzer.
(§8) Inhibition rate of a compound was calculated as follows:
(§9) Inhibition rate=[1−(OD value of administration group−OD value of NC)/(OD value of PC−OD value of NC)]×100%
(§10) Inhibition rates were then plotted versus the logarithm of compound concentrations, and fitted with Logistic 4 parameter equation. The compound concentration corresponding to 50% inhibition rate in the curve was IC50 value.

Assay [2] relates to human pharyngeal squamous cell carcinoma Fadu. The experiment in a line: growth inhibition on FaDu in vitro (MTT). The following applies: FaDu cells, 72 h. The protocol:
as §1
(§11) The following cells were cultured under the following conditions, respectively:
(§12) 37° C., 5% CO2, saturated humidity.
(§13) The cells were cultured until confluence, digested with a pancreatic enzyme, and prepared into a single cell suspension in a complete medium.
(§14) The cells were seeded in a 96-well microplate at a suitable concentration (AsPC-1: 8000 cells/well; NCI-H1975: 5000 cells/well; Fadu: 6000 cells/well; NCI-N87: 15000 cells/well), cultured overnight to render them adherent to the bottom.
as §6, with “in total. 20 μl of” for “in total. 12 μl of”, “well was 200 μl and” for “well was 120 μl and”, “control group (PC) without compounds” for “control group without compounds”
(§15) Subsequently, the activity of cells was measured with a microculture tetrozolium (MTT method). Specifically, the medium in well was sucked out, a base medium containing 0.5 mg/ml MTT was added in an amount of 100 μl/well, and then the cell was further cultured for 3 h. The medium containing MTT was once again sucked out, 100 μl/well of DMSO was added to dissolve MTT crystal, and OD value at 490 nm was measured with an ELISA analyzer.
(§16) Inhibition rate of a compound was calculated as follows: Inhibition rate=[1−(OD value of administration group−OD value of NC)/(OD value of PC−OD value of NC)]×100%
as §10

Assay [3] has as its system human acute lymphocytic leukemia taxol-resistant cell strain CCRF-CEM/T. In words: growth inhibition on CCRF-CEM/T in vitro (MTT). The following applies: CCRF-CEM-T cells, 72 h. The protocol: as §1, §2, §3, §4, §5, §6, §7, §8, §9, §10
In assay [4] the test system is human B lymphoma BA127. The experiment in a line: growth inhibition on BA127 in vitro (MTT). The following applies: BA127 cells, 72 h. The protocol: as §1, §2, §3, §4, §5, §6, §7, §8, §9, §10
The subject of assay [5] is human B lymphoma BA25. The experiment in a line: growth inhibition on BA25 in vitro (MTT). Conditions: BA25 cells, 72 h. How it is done: as §1, §2, §3, §4, §5, §6, §7, §8, §9, §10
The subject of assay [6] is Human pancreatic cancer AsPC-1. The experiment in a line: growth inhibition on AsPC-1 in vitro (MTT). The following applies: ASPC1, Aspc-1 cells, 72 h. The protocol: as §1, §11, §12, §13, §14
as §6, with “in total. 20 μl of” for “in total. 12 μl of”, “well was 200 μl and” for “well was 120 μl and”, “control group (PC) without compounds” for “control group without compounds”
as §15, §16, §10

Assay [7] deals with human stomach cancer NCI-N87. In words: growth inhibition on NCI-N87 in vitro (MTT). The following applies: NCI-N87 cells, 72 h, read-out: growth inhibition effects IC50 (nM) NCI-N87. The protocol: as §1, §11, §12, §13, §14
as §6, with “in total. 20 μl of” for “in total. 12 μl of”, “well was 200 μl and” for “well was 120 μl and”, “control group (PC) without compounds” for “control group without compounds”
(§17) Subsequently, the activity of cells was measured with a microculture tetrozolium (MTT method). […] The medium containing MTT was once again sucked out, 100 μl/well of DMSO was added to dissolve MTT crystal, and OD value at 490 nm was measured with an ELISA analyzer.
(§18) Inhibition rate of a compound was calculated as follows: Inhibition rate=[1−(OD value of administration group−OD value of NC)/(OD value of PC−OD value of NC)]×100% […]

The test system of assay [8] is human non-small cell lung cancer A549. The experiment in a line: growth inhibition on A549 in vitro. The following applies: A549 cells, read-out: growth inhibition effects IC50 (nM) A549.
Source text: as §1

Assay [9] has as its system human liver cancer SK-Hep-1. In words: growth inhibition on SK-Hep-1 in vitro. The following applies: SK-HEP1, SK-Hep-1 cells, read-out: growth inhibition effects IC50 (nM) SK-Hep-1.
Source text: as §1

Assay [10] relates to human prostate cancer PC-3. The experiment in a line: growth inhibition on PC-3 in vitro. The following applies: PC-3 cells, read-out: growth inhibition effects IC50 (nM) PC-3.
Source text: as §1

Assay [11] relates to human adenocarcinoma of lung NCI-H1975. The experiment in a line: growth inhibition on NCI-H1975 in vitro (MTT). Conditions: NCI-H1975 cells, 72 h, read-out: growth inhibition effects IC50 (nM) NCI-H1975. The protocol: as §1, §11, §12, §13, §14
as §6, with “in total. 20 μl of” for “in total. 12 μl of”, “well was 200 μl and” for “well was 120 μl and”, “control group (PC) without compounds” for “control group without compounds”
as §17, §18

Assay [12] deals with human lung cancer NCI-H460. The experiment in a line: growth inhibition on NCI-H460 in vitro. Conditions: NCI-H460 cells, read-out: growth inhibition effects IC50 (nM) NCI-H460.
Source text: as §1

Some results are limits rather than exact numbers.

For `N#C/N=C(\NCCCCCCOc1cc(Cl)ccc1OC(F)F)Nc1ccncc1` [Example 1, N-cyano-N′-(6-(2-difluoromethoxy-5-chlorophenoxy)hexyl)-N″-(4-pyridyl) guanidine], the half-inhibitory concentration (IC50) was 2 nM in [1], 1.2 nM in assay [2], 2.2 nM in [3] and 1.4 nM in assay [4].

`N#C/N=C(\NCCCCCCOc1ccc(OC(F)(F)F)cc1)Nc1ccncc1` [Example 4, N-cyano-N′-(6-(p-trifluoromethoxyphenoxy)hexyl)-N″-(4-pyridyl) guanidine] displayed an IC50 in assay [5] of 12 nM.

`COc1ccccc1OCCCCCN/C(=N\C#N)Nc1ccncc1` [Control 1, N-cyano-N′-(5-(o-methoxyphenoxy)pentyl)-N″-(4-pyridyl) guanidine, reference compound]: the IC50 in assay [3] is 113 nM; in assay [6] it was 135 nM.

`N#C/N=C(\NCCCCCCOc1ccc(Cl)cc1OC(F)F)Nc1ccncc1` [Example 12, N-cyano-N′-(6-(2-difluoromethoxy-4-chlorophenoxy)hexyl)-N″-(4-pyridyl)guanidine]: the IC50 in assay [1] is less than 1 nM; in assay [2], 2.8 nM; in assay [3], 2.3 nM; in assay [4], 3.2 nM; in assay [6] it was 2.3 nM.

`N#C/N=C(\NCCCCCCOc1ccccc1Cl)Nc1ccncc1` [Control 3, N-cyano-N′-(6-(2-chlorophenoxy)hexyl)-N″-(4-pyridyl) guanidine, reference compound]: the IC50 came out at 6.3 nM in assay [3] and 7.2 nM in [6].

In the case of `N#C/N=C(\NCCCCCCOc1ccc(Br)cc1OC(F)(F)F)Nc1ccncc1` [Example 7, N-cyano-N′-(6-(2-trifluoromethoxy-4-bromophenoxy)hexyl)-N″-(4-pyridyl)guanidine], the IC50 was found to be 5.8 nM in assay [1]; 6.3 nM in assay [5]; 4.7 nM in assay [2]; 5.1 nM in assay [3]; 6.9 nM in [4].

Regarding `N#C/N=C(\NCCCCCCOc1ccc(Cl)cc1)Nc1ccncc1` [Control 2, N-cyano-N′-(6-(4-chlorophenoxy)hexyl)-N″-(4-pyridyl) guanidine], the IC50 in [7] stood at 14 nM; in assay [8], 22 nM; in assay [9], 16 nM; in assay [10], 2.5 nM; in assay [2], 11.7 nM; in [3], 22 nM. For the same molecule, the IC50 in [11] stood at 54 nM; in assay [6], 19 nM; in assay [12], 83 nM.

As to `N#C/N=C(\NCCCCCCOc1ccccc1OC(F)(F)F)Nc1ccncc1` [Example 11, N-cyano-N′-(6-(o-trifluoromethoxyphenoxy)hexyl)-N″-(4-pyridyl) guanidine], the concentration for half-maximal inhibition (IC50) in assay [7] was determined as 1.5 nM; in [8] it was 3 nM; in [9], 2.3 nM; in [1], 1.5 nM; in assay [10], 0.2 nM; in assay [5] it was 1 nM. The IC50 was found to be 1.5 nM in assay [2]; 1.6 nM in [3]; 5.3 nM in [11]; 1.5 nM in [4]; 2.1 nM in assay [6]; 8 nM in assay [12].

On to `COc1ccccc1OCCCCCCN/C(=N\C#N)Nc1ccncc1` [Control 4, N-cyano-N′-(6-(2-methoxyphenoxy)hexyl)-N″-(4-pyridyl) guanidine], for which the IC50 was 6.6 nM in assay [7]; 9.9 nM in assay [8]; 2.4 nM in assay [10]; 6.9 nM in [3]; 15.5 nM in assay [11]; 7.3 nM in [6]. Moreover, the half-maximal inhibitory concentration (IC50) in assay [12] worked out at 38 nM.

As to `CC(C)(C)c1ccc(OC(F)F)c(OCCCCCCN/C(=N\C#N)Nc2ccncc2)c1` [Example 10, N-cyano-N′-(6-(2-difluoromethoxy-5-tert-butylphenoxy)hexyl)-N″-(4-pyridyl)guanidine], the figures for the IC50 in assay [1], in assay [2] and in assay [4] were 3.5 nM, 2.4 nM and 13 nM, respectively.

For `Cc1ccc(OC(F)F)c(OCCCCCCN/C(=N\C#N)Nc2ccncc2)c1` [Example 16, N-cyano-N′-(6-(5-methyl-2-difluoromethoxyphenoxy)hexyl)-N″-(4-pyridyl)guanidine], the IC50 in assay [1] was less than 1 nM; in assay [2], 1.3 nM; in assay [3], 2.2 nM; in assay [4] it was 1.3 nM; in assay [6], 0.9 nM.

For `N#C/N=C(\NCCCCCCCCOc1ccccc1OC(F)(F)F)Nc1ccncc1` [Example 6, N-cyano-N′-(8-(o-trifluoromethoxyphenoxy)octyl)-N″-(4-pyridyl) guanidine], the IC50 amounted to 9.6 nM in assay [1], 5.6 nM in [5] and 9.3 nM in [4].

Regarding `N#C/N=C(\NCCCCCCOc1ccccc1OC(F)(F)F)Nc1cccnc1` [Example 2, N-cyano-N′-(6-(o-trifluoromethoxyphenoxy)hexyl)-N″-(3-pyridyl) guanidine], the IC50 in [1] worked out at 2.7 nM; in assay [5] it was 4.4 nM; in assay [4], 4.3 nM.

Consider `N#C/N=C(\NCCCCCOc1ccccc1OC(F)(F)F)Nc1ccncc1` [Example 5, N-cyano-N′-(5-(o-trifluoromethoxyphenoxy)pentyl)-N″-(4-pyridyl) guanidine], for which the figures for the concentration for half-maximal inhibition (IC50) in assay [1], in [5] and in assay [4] were 6.9 nM, 7.3 nM and 6.1 nM, respectively.

One may read the IC50 as the concentration at which inhibition is half-maximal.
